Results from patent publication US8633183B2 (priority 2010, dated 2014).

These compounds were tested against PI3Kalpha (Homo sapiens (Human), UniProt P42336). Conditions: read-out: IC50 PI3K.
PI3Kalpha, sequence (P42336 whole entry, looked up): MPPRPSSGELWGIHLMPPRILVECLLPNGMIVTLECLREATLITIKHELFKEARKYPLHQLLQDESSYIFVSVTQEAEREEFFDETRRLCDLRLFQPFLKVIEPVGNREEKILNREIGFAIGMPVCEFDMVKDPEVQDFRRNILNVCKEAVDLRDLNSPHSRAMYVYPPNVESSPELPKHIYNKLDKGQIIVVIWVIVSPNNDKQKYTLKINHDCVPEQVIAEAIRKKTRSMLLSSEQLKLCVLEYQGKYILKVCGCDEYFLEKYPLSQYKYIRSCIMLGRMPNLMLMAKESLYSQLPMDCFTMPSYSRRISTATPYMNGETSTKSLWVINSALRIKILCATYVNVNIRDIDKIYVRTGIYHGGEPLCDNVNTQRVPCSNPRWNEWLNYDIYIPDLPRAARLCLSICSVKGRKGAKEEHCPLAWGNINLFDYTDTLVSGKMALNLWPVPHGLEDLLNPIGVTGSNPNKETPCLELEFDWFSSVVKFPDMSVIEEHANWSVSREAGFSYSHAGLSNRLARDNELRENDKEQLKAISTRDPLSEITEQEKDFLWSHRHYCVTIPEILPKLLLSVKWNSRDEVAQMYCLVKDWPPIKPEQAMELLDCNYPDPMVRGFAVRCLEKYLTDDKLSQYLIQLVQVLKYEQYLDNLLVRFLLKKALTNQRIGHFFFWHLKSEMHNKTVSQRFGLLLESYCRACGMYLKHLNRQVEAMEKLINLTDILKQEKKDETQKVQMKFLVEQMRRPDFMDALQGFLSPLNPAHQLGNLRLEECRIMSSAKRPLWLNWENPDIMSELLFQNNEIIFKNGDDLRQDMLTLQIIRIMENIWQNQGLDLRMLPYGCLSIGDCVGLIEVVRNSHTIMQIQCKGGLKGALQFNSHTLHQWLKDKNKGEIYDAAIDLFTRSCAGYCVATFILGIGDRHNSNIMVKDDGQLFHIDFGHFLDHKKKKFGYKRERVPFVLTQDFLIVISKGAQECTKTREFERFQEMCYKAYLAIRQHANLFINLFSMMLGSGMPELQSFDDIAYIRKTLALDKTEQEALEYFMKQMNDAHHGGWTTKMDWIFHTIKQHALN

| SMILES | IC50 |
| --- | --- |
| CCc1ncnc(-c2cc(F)c(C(=O)N3CCN(C)C(=O)C3)c(F)c2)c1C#Cc1ccc(NC)nc1 [Example E-208] | 176 nM |
| CCc1ncnc(-c2cc(F)c(C(=O)N3CC[C@@H](N(C)C)C3)c(F)c2)c1C#Cc1ccc(NC)nc1 [Example E-209] | 546 nM |
| CCc1ncnc(-c2cc(F)c(C(=O)N3CCN(C)CC3)c(F)c2)c1C#Cc1ccc(NC)nc1 [Example E-210] | 388 nM |
| CCc1ncnc(-c2cc(F)c(C(=O)N3CCN(CC)CC3)c(F)c2)c1C#Cc1ccc(NC)nc1 [Example E-211] | 472 nM |
| CCc1ncnc(-c2cc(F)c(C(=O)N3CCN(CC(C)(C)O)CC3)c(F)c2)c1C#Cc1ccc(NC)nc1 [Example E-212] | 645 nM |
| CCc1ncnc(-c2cc(F)c(C(=O)N3CCC(C(C)O)CC3)c(F)c2)c1C#Cc1ccc(NC)nc1 (stereo not drawn) [Example E-213] | 465 nM |
| CCc1ncnc(-c2cc(F)c(C(=O)N3CCC(C(C)(C)O)CC3)c(F)c2)c1C#Cc1ccc(NC)nc1 [Example E-214] | 600 nM |
| CCc1ncnc(-c2cc(F)c(C(=O)N3CCN(C4CCOCC4)CC3)c(F)c2)c1C#Cc1ccc(NC)nc1 [Example E-216] | 466 nM |
| CCc1ncnc(-c2cc(F)c(C(=O)N3CCN(CC(F)F)CC3)c(F)c2)c1C#Cc1ccc(NC)nc1 [Example E-217] | 327 nM |
| CCc1ncnc(-c2cc(F)c(C(=O)N3CCC(C)(O)CC3)c(F)c2)c1C#Cc1ccc(NC)nc1 [Example E-218] | 362 nM |
| CCc1ncnc(-c2cc(F)c(C(=O)N3CCN(C=O)CC3)c(F)c2)c1C#Cc1ccc(NC)nc1 [Example E-219] | 163 nM |
| CCc1ncnc(-c2cc(F)c(C(=O)N3CCC(CO)CC3)c(F)c2)c1C#Cc1ccc(NC)nc1 [Example E-220] | 293 nM |
| CCc1ncnc(-c2cc(F)c(C(=O)N3CCN(CCC#N)CC3)c(F)c2)c1C#Cc1ccc(NC)nc1 [Example E-221] | 213 nM |
| CCc1ncnc(-c2ccc(C(=O)N3CCN(C(C)C)CC3)c(OC(F)(F)F)c2)c1C#Cc1ccc(N)nc1 [Example E-222] | 530 nM |
| CCc1ncnc(-c2ccc(C(=O)N3CCN4CCC[C@H]4C3)c(OC(F)(F)F)c2)c1C#Cc1ccc(N)nc1 [Example E-223] | 157 nM |
| CCc1ncnc(-c2ccc(C(=O)N3CC[C@@H](N(C)C)C3)c(OC(F)(F)F)c2)c1C#Cc1ccc(N)nc1 [Example E-224] | 402 nM |
| CCc1ncnc(-c2ccc(C(=O)N3CCN(C)CC3)c(OC(F)(F)F)c2)c1C#Cc1ccc(N)nc1 [Example E-225] | 224 nM |
| CCc1ncnc(-c2ccc(C(=O)N3CCN(CC)CC3)c(OC(F)(F)F)c2)c1C#Cc1ccc(N)nc1 [Example E-226] | 196 nM |
| CCc1ncnc(-c2ccc(C(=O)N3CCC(N4CCOCC4)CC3)c(OC(F)(F)F)c2)c1C#Cc1ccc(N)nc1 [Example E-228] | 356 nM |
| CCc1ncnc(-c2ccc(C(=O)N3CCN(C)CC3)c(C(F)(F)F)c2)c1C#Cc1ccc(N)nc1 [Example E-229] | 174 nM |
| CCc1ncnc(-c2ccc(C(=O)N3CCN(C(C)C)CC3)c(C(F)(F)F)c2)c1C#Cc1ccc(N)nc1 [Example E-230] | 279 nM |
| CCc1ncnc(-c2ccc(C(=O)N3CCN(CC)CC3)c(C(F)(F)F)c2)c1C#Cc1ccc(N)nc1 [Example E-231] | 185 nM |
| CCc1ncnc(-c2ccc(C(=O)N3CCC(C(C)(C)O)CC3)c(C(F)(F)F)c2)c1C#Cc1ccc(N)nc1 [Example E-232] | 142 nM |
| CCc1ncnc(-c2cc(F)c(C(=O)N3CCN(C)CC3)c(Cl)c2)c1C#Cc1ccc(N)nc1 [Example E-233] | 89.8 nM |
| CCc1ncnc(-c2cc(F)c(C(=O)N3CCN(C(C)C)CC3)c(Cl)c2)c1C#Cc1ccc(N)nc1 [Example E-234] | 263 nM |
| CCc1ncnc(-c2cc(F)c(C(=O)N3CCN(CC)CC3)c(Cl)c2)c1C#Cc1ccc(N)nc1 [Example E-235] | 178 nM |

| SMILES | IC50 |
| --- | --- |
| CCc1ncnc(-c2cc(F)c(C(=O)N3CCC(N4CCOCC4)CC3)c(Cl)c2)c1C#Cc1ccc(N)nc1 [Example E-236] | 141 nM |
| CCc1ncnc(-c2cc(F)c(C(=O)N3CCC(C(C)(C)O)CC3)c(Cl)c2)c1C#Cc1ccc(N)nc1 [Example E-237] | 121 nM |
| CCc1ncnc(-c2cc(F)c(C(=O)N3CCN4CCC[C@H]4C3)c(Cl)c2)c1C#Cc1ccc(N)nc1 [Example E-238] | 175 nM |
| CCc1ncnc(-c2cc(F)c(C(=O)N3CCN(C)C(=O)C3)c(Cl)c2)c1C#Cc1ccc(N)nc1 [Example E-239] | 46.2 nM |
| CCc1ncnc(-c2cc(F)c(C(=O)N3CCN(CC(C)(C)O)CC3)c(Cl)c2)c1C#Cc1ccc(N)nc1 [Example E-240] | 115 nM |
| CCc1ncnc(-c2cc(F)c(C(=O)N3CCC(C(C)O)CC3)c(Cl)c2)c1C#Cc1ccc(N)nc1 (stereo not drawn) [Example E-241] | 91.5 nM |
| CCc1ncnc(-c2cc(F)c(C(=O)N3CCC(CO)CC3)c(Cl)c2)c1C#Cc1ccc(N)nc1 [Example E-242] | 120 nM |
| CCc1ncnc(-c2cc(F)c(C(=O)N3CCN(CCC#N)CC3)c(Cl)c2)c1C#Cc1ccc(N)nc1 [Example E-243] | 110 nM |
| CCc1ncnc(-c2ccc(C(=O)N3CCN(CCNS(C)(=O)=O)CC3)c(F)c2)c1C#Cc1ccc(N)nc1 [Example E-246] | 81.3 nM |
| CCc1ncnc(-c2ccc(C(=O)N3CCn4c(C)cnc4C3)c(F)c2)c1C#Cc1ccc(N)nc1 [Example E-247] | 95.4 nM |
| CCc1ncnc(-c2ccc(C(=O)N3CCn4cnnc4C3)c(F)c2)c1C#Cc1ccc(N)nc1 [Example E-248] | 50.8 nM |
| CCc1ncnc(-c2ccc(C(=O)N3CCn4ccnc4C3)c(F)c2)c1C#Cc1ccc(N)nc1 [Example E-249] | 60.5 nM |
| CCc1ncnc(-c2ccc(C(=O)N3CCN(CCCS(C)(=O)=O)CC3)c(F)c2)c1C#Cc1ccc(N)nc1 [Example E-250] | 92.2 nM |
| CCc1ncnc(-c2ccc(C(=O)N3CCC4(CC3)CNC4)c(Cl)c2)c1C#Cc1ccc(N)nc1 [Example E-251] | 90.7 nM |
| CCc1ncnc(-c2ccc(C(=O)N3CCN(C4CCC4)CC3)c(Cl)c2)c1C#Cc1ccc(N)nc1 [Example E-252] | 48.2 nM |
| CCc1ncnc(-c2ccc(C(=O)N3CCN(CCNS(C)(=O)=O)CC3)c(Cl)c2)c1C#Cc1ccc(N)nc1 [Example E-253] | 30.6 nM |
| CCc1ncnc(-c2ccc(C(=O)N3CCn4c(C)cnc4C3)c(Cl)c2)c1C#Cc1ccc(N)nc1 [Example E-254] | 31.6 nM |
| CCc1ncnc(-c2ccc(C(=O)N3CCn4cnnc4C3)c(Cl)c2)c1C#Cc1ccc(N)nc1 [Example E-255] | 4.83 nM |
| CCc1ncnc(-c2ccc(C(=O)N3CCn4ccnc4C3)c(Cl)c2)c1C#Cc1ccc(N)nc1 [Example E-256] | 23 nM |
| CCc1ncnc(-c2ccc(C(=O)N3CCN(CCCS(C)(=O)=O)CC3)c(Cl)c2)c1C#Cc1ccc(N)nc1 [Example E-257] | 58.3 nM |
| CCNc1ccc(C#Cc2c(CC)ncnc2-c2ccc(C(=O)N3CCN(CCCS(C)(=O)=O)CC3)c(F)c2)cn1 [Example E-258] | 110 nM |
| CCNc1ccc(C#Cc2c(CC)ncnc2-c2ccc(C(=O)N3CCC(N4CCOCC4)CC3)c(F)c2)cn1 [Example E-259] | 209 nM |
| CCNc1ccc(C#Cc2c(CC)ncnc2-c2ccc(C(=O)N3CCn4ccnc4C3)c(F)c2)cn1 [Example E-260] | 63.8 nM |
| CCNc1ccc(C#Cc2c(CC)ncnc2-c2ccc(C(=O)N3CCn4cnnc4C3)c(F)c2)cn1 [Example E-261] | 44.3 nM |
| CCNc1ccc(C#Cc2c(CC)ncnc2-c2ccc(C(=O)N3CCn4c(C)cnc4C3)c(F)c2)cn1 [Example E-262] | 134 nM |
